Test results reported in patent US11841367B2, “TLR agonist-enhanced in vitro assay of cell mediated immune responsiveness” (Cellestis Limited, priority 2011, dated 2023).

Columns and labels:
Type in all cases: cell-based, human
[1] = tested on: whole blood; experiment: Background IFN-γ responses to R848 alone in QFT-Nil tubes (whole blood, ELISA); conditions: for IFNγ concentration of the plasma, background response, Mean: QFT-Nil tube, 1 ml whole blood, 37° C., 16-24 hours
[2] = tested on: whole blood; experiment: Clinical study: QFT-TB response with added R848 in TB patients, TB suspects and household contacts; conditions: for effect on QFT-TB response: subjects positive to QFT-TB test alone
[3] = tested on: whole blood; experiment: IFN-γ responses of whole blood in QFT-Nil tubes with EBV EBNA1 pepMix plus R848; conditions: for IFNγ response to antigen+R848 minus background to R848 alone, Mean: 16-24 hours
[4] = tested on: whole blood; experiment: IFN-γ responses of whole blood in QFT-CMV tubes plus R848; conditions: for IFNγ response to antigen+R848 minus background to R848 alone, Mean: 16-24 hours

CCOCc1nc2c(N)nc3ccccc3c2n1CC(C)(C)O [R848]
background responses to R848 alone ([1]; 0.1 μg/ml R848, QFT-Nil tubes): significant background responses seen in many donors | IFNγ concentration of the plasma, background response, Mean ([1]; R848 0.01 μg/ml alone): −0.009677 1 U/ml | IFNγ concentration of the plasma, background response, Mean ([1]; R848 0.02 μg/ml alone): 0.0100 1 U/ml | IFNγ concentration of the plasma, background response, Mean ([1]; R848 0.025 μg/ml alone): 0.0330 1 U/ml | IFNγ concentration of the plasma, background response, Mean ([1]; R848 0.03 μg/ml alone): 0.0925 1 U/ml | IFNγ concentration of the plasma, background response, Mean ([1]; R848 0.04 μg/ml alone): 0.5144 1 U/ml | IFNγ concentration of the plasma, background response, Mean ([1]; R848 0.05 μg/ml alone): 1.084 1 U/ml | IFNγ concentration of the plasma, background response, Mean ([1]; R848 0.1 μg/ml alone): 21.58 1 U/ml | background responses to R848 alone ([1]; below 0.05 μg/ml R848, QFT-Nil tubes): not significant | effect on QFT-TB response ([2]; R848 0.05 μg/ml, P<0.001): significantly enhanced | effect on QFT-TB response ([2]; R848 0.1 μg/ml, P<0.0001): significantly enhanced | patients negative with the current QFT-TB tube who became positive when R848 was added ([2]; both R848 concentrations tested, both patients TB suspects): Two | boost in EBV responses ([3]; 0.05 μg/ml R848 added to EBV EBNA1 peptide pool): significant boost | IFNγ response to antigen+R848 minus background to R848 alone, Mean ([3]; 0.5 μg/ml EBV EBNA 1 pepMix + 0.01 μg/ml R848, whole blood): 2.857 IU/ml | IFNγ response to antigen+R848 minus background to R848 alone, Mean ([3]; 0.5 μg/ml EBV EBNA 1 pepMix + 0.05 μg/ml R848, whole blood): 18.32 IU/ml | IFNγ response to antigen+R848 minus background to R848 alone, Mean ([3]; 0.5 μg/ml EBV EBNA 1 pepMix + 0.1 μg/ml R848, whole blood): 29.57 IU/ml | responses to the antigen-R848 combined stimuli versus sum of separate responses ([3]; EBV and CMV antigens, whole blood): greater than that seen by adding together the responses to the antigen and R848 alone individually | boost in responses in QFT-CMV tubes ([4]; 0.05 μg/ml R848 added): not as large as that seen for EBV | boost in responses in QFT-CMV tubes ([4]; 0.1 μg/ml R848 added): much greater | IFNγ response to antigen+R848 minus background to R848 alone, Mean ([4]; QFT-CMV tube + 0.05 μg/ml R848, whole blood): 15.96 IU/ml | IFNγ response to antigen+R848 minus background to R848 alone, Mean ([4]; QFT-CMV tube + 0.1 μg/ml R848, whole blood): 79.53 IU/ml
